Source: patent US9096550B2, “Bryostatin analogues and methods of making and using thereof” (UNIVERSITY OF UTAH RESEARCH FOUNDATION, priority 2008, dated 2015)
Read-outs that look alike come from different tables or passages of the source.

How the values were obtained:
Format in all cases: cell-based, human
PKC delta = assay: Phosphorylation of PKC delta at Y311 in LNCaP cells (western blot)
Method: FIGS. 14A-C show the induction of cFos and phosphorylation of PKC at Y311 in LNCaP cells. […] The proteins from the lysates were separated by 10% SDS-PAGE, electroblotted to nitrocellulose membranes and probed with anti-cFos primary and anti-rabbit secondary antibodies, followed by ECL visualization. Data are representative of four independent experiments. […] The cFos signal was normalized to the β-actin signal to correct for loading and the response induced by 100 nM PMA at 2 hrs was taken as 100%. Data represent the means+SEM of four independent experiments. […] Data represent the means+SEM of three independent experiments.
LNCaP cells treated for 48 hours with the different drugs or with DMSO as control were washed and re-suspended in phosphate buffered saline. Yo-Pro-1 (Invitrogen, Carlsbad, Calif.) was added to a final concentration of 1 μM and the cells were incubated for 20 min at 4° C. in the dark. 7-Aminoactinomycin D (7-AAD) (Invitrogen, Carlsbad, Calif.) was then added at a 5 μg/mL final concentration 10 minutes before analysis by flow cytometry using the FACSCalibur system (Becton Dickinson, Mountain View, Calif.). Data were analyzed with FlowJo 7 (Tree Star Inc., Ashland, Oreg.). The Yo-Pro-1 positive cells were considered apoptotic and were expressed as % of total cells. […]

LNCaP cells = assay: Early morphology change (cell flattening) of LNCaP cells by Incucyte imaging
Method: FIGS. 13A and 13B show the proliferation and morphology of LNCaP cells detected by Incucyte. LNCaP cells were treated with DMSO as control, 300 nM PMA, 1000 nM bryostatin 1 or the bryologue MERLE 21, or with 300 nM PMA in combination with 1000 nM bryostatin 1 or the bryologue MERLE 21. Time-elapsed images were taken by the Incucyte imaging system every hour. […] The arrow indicates the time of treatment. Data are representative of three independent experiments.
The extent of confluency of LNCaP cells (from ATCC, Manassas, Va.) and the morphological changes after treatment were followed in real time using Incucyte (Essen Instruments, Ann Arbor, Mich.). […] The confluency of the cells was calculated by the instrument's program. The proliferation of LNCaP cells was expressed as the difference in cell confluency before and after treatment.
The above measurements were determined at fixed times after compound addition, 80 hr for proliferation and 48 hr for apoptosis. Cell growth was monitored continuously using an Incucyte live cell imaging system. […] At early times (0-6 hrs after treatment), the imaging also detected a transient response, reflecting a change in cell morphology induced by the compounds, superimposed on the slower change in the signal reflecting proliferation. […]

U937 cells = assay: Inhibition of U937 cell proliferation; conditions: for inhibition of U937 cell proliferation: compound alone
Method: U937 cells (Sundstrom, C.; Nilsson, K.: Establishment and characterization of a human histiocytic lymphoma cell line (U-937). Int. J. Cancer 1976, 17: 565-577.), purchased from ATCC (Manassas, Va.) and cultured in RPMI-1640 medium supplemented with 10% FBS (ATCC, Manassas, Va.), were plated in 35 mm dishes at a density of 2×10^5 living cells/ml and treated with different concentrations of the drugs or DMSO. After 72 hours, the number of cells in the supernatant (non-attached cells) and the number of attached cells (after trypsinization) were counted using a Beckman particle counter (Beckman Coulter Inc., Fullerton, Calif.). The number of attached cells is expressed as percent of total cells (FIGS. 8-10).
(§1) U937 cells were treated with PMA (0.1-100 nM), bryostatin 1 (1-1000 nM), the indicated compound (1-1000 nM), 10 nM PMA with different concentrations of bryostatin 1 (1-1000 nM) or 10 nM PMA with different concentrations of indicated compound (1-1000 nM). The number of attached and non-attached cells was counted and the number of total cells was expressed as % of control. The bars and error bars represent the average and the standard error of the mean of five independent experiments (FIGS. 8-10).
(§2) U937 cells (Sundstrom and Nilsson, 1976), purchased from ATCC (Manassas, Va.) and cultured in RPMI-1640 medium supplemented with 10% FBS (ATCC, Manassas, Va.), were plated in 35 mm dishes at a density of 1×10^5 living cells/ml and treated with different concentrations of the drugs or DMSO. After 72 hours, the number of cells in the supernatant (non-attached cells) and the number of attached cells (after trypsinization) were counted using a particle counter. The number of attached cells is expressed as percent of total cells.
U937 cells were treated with PMA (0.01-100 nM), bryostatin1 (0.1-1000 nM), analogue 12 (0.1-1000 nM), 10 nM PMA with different concentrations of bryostatin 1 (0.1-1000 nM) or 10 nM PMA with different concentrations of analogue 12 (0.1-1000 nM). The numbers of attached and non-attached cells were counted and the number of total cells was expressed as % of control. The bars and error bars represent the average and the standard error of the mean of at least three independent experiments.
as §2, with “U-937” for “U937”
as §1, with “U-937” for “U937”, “at least three” for “five”, “experiments.” for “experiments (FIGS. 8-10).”

CCCCCCCCCCCCCC(=O)O[C@@H]1[C@@H](C)[C@@]2(O)[C@@H](C=C(CO)C[C@]3(O)C(=O)C(C)=C[C@@H]23)[C@@H]2C(C)(C)[C@]12OC(C)=O [PMA]
phosphorylation of PKC delta at Y311 (PKC delta): rapid phosphorylation | persistence of cell flattening (early morphological response) (LNCaP cells): still evident at 6 hrs but reversing by 9 hrs | inhibition of U937 cell proliferation (U937 cells): inhibits cell proliferation

CCC/C=C/C=C/C(=O)O[C@H]1/C(=C/C(=O)OC)C[C@H]2C[C@H]([C@@H](C)O)OC(=O)C[C@H](O)C[C@@H]3C[C@H](OC(C)=O)C(C)(C)[C@](O)(C[C@@H]4C/C(=C/C(=O)OC)C[C@H](/C=C/C(C)(C)[C@]1(O)O2)O4)O3 [bryostatin 1]
phosphorylation of PKC delta at Y311 (PKC delta): only very weak phosphorylation | persistence of cell flattening (early morphological response) (LNCaP cells; LNCaP cells, 0-9 hrs after treatment): had reversed by 6 hrs after treatment | block of PMA inhibition of U937 cell proliferation (U937 cells; 10 nM PMA with different concentrations of compound): able to block the effect of PMA in a dose dependent manner | inhibition of U937 cell proliferation (U937 cells): not strongly antiproliferative | inhibition of U937 cell proliferation (U937 cells; listed as Bryostatin 1): much less effect on either response
